Reference: patent US20260007681A1, “INDOLE DERIVATIVES AS ESTROGEN RECEPTOR DEGRADERS” (REGENTS OF THE UNIVERSITY OF MICHIGAN, priority 2022, published 2026)

Biological target: ER (Homo sapiens (Human), UniProt P03372)
Assay: Western blot analysis (Compounds B1-B278)
Assay type: cell-based
Details: ER degradation by traditional Western blot; DC50 classes
Method: Western Blot Analysis. The cells that are treated with the compounds are lysed in Radioimmunoprecipitation Assay Protein Lysis and Extraction Buffer (e.g., 25 mmol/L Tris.HCl, pH 7.6, 150 mmol/L NaCl, 1% Nonidet P-40, 1% sodium deoxycholate, and 0.1% sodium dodecyl sulfate) containing proteinase inhibitor cocktail. Equal amounts of total protein are electrophoresed through 10% SDS-polyacrylamide gels after determination of protein concentration by BCA assay. The separated protein bands are transferred onto PVDF membranes and blotted against different antibodies. The blots are scanned, and the band intensities are quantified (e.g., by using GelQuant.NET software provided by biochemlabsolutions.com). The relative mean intensity of target proteins is expressed after normalization to the intensity of glyceraldehyde-3-phosphate dehydrogenase bands.
Western Blot Analysis. Western blot analysis was performed essentially as described previously. The cells treated with indicated compounds were lysed in Radioimmunoprecipitation Assay Protein Lysis and Extraction Buffer (25 mmol/L Tris.HCl, pH 7.6, 150 mmol/L NaCl, 1% Nonidet P-40, 1% sodium deoxycholate, and 0.1% sodium dodecyl sulfate) containing proteinase inhibitor cocktail (Roche Diagnostics, Mannheim, Germany). Equal amounts of total protein were electrophoresed through 10% SDS-polyacrylamide gels after determination of protein concentration by BCA assay (Fisher Scientific, Pittsburgh, PA). The separated protein bands were transferred onto PVDF membranes (GE Healthcare Life Sciences, Marlborough, MA) and blotted against different antibodies, as indicated. The blots were scanned, and the band intensities were quantified using GelQuant.NET software provided by biochemlabsolutions.com. The relative mean intensity of target proteins was expressed after normalization to the intensity of glyceraldehyde-3-phosphate dehydrogenase bands.

Sequence of ER (P03372 whole entry): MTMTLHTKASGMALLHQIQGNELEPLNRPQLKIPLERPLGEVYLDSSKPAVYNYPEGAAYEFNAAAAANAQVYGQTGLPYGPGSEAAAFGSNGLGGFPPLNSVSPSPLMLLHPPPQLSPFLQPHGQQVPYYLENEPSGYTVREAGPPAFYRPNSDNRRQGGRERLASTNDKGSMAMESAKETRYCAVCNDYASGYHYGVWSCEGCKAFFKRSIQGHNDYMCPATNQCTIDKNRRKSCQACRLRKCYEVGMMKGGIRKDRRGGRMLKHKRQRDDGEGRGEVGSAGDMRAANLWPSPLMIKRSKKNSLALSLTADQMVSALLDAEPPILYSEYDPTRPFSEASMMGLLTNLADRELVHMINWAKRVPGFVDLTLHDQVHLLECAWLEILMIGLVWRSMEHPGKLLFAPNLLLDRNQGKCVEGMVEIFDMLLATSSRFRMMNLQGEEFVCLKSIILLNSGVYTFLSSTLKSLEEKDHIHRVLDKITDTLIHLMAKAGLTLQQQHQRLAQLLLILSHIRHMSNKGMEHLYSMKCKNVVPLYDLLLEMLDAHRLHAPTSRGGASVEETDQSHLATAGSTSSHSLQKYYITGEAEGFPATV

SMILES	Traditional Western Degradation Potency
C[C@@H]1Cc2c([nH]c3ccccc23)[C@@H](c2c(F)cc(N3CCC(CN4CCC(N5Cc6cc7c(cc6C5)C(=O)N(C5CCC(=O)NC5=O)C7=O)C4)CC3)cc2F)N1CC(F)F (stereo partly drawn) [Compound B66, 6-(1-((1-(4-((1R,3R)-2-(2,2-difluoroethyl)-3-methyl-2,3,4,9-tetrahydro-1H-pyrido[3,4-b]indol-1-yl)-3,5-difluorophenyl)piperidin-4-yl)methyl)pyrrolidin-3-yl)-2-(2,6-dioxopiperidin-3-yl)-6,7-dihydropyrrolo[3,4-f]isoindole-1,3(2H,5H)-dione]	A (“A”: <10 nM)
C[C@@H]1Cc2c([nH]c3ccccc23)[C@@H](c2ccc(N3CCC(C(=O)N4CCC(N5Cc6cc7c(cc6C5)C(=O)N(C5CCC(=O)NC5=O)C7=O)CC4)CC3)cc2)N1CC(F)F (stereo partly drawn) [Compound B225, 6-(1-(1-(4-((1R,3R)-2-(2,2-difluoroethyl)-3-methyl-2,3,4,9-tetrahydro-1H-pyrido[3,4-b]indol-1-yl)phenyl)piperidine-4-carbonyl)piperidin-4-yl)-2-(2,6-dioxopiperidin-3-yl)-6,7-dihydropyrrolo[3,4-f]isoindole-1,3(2H,5H)-dione]	B (“B”: 10-100 nM)
C[C@@H]1Cc2c([nH]c3ccccc23)[C@@H](c2c(F)cc(N3CC[C@@H](CN4CCC(C(=O)N5Cc6cc7c(cc6C5)C(=O)N(C5CCC(=O)NC5=O)C7)CC4)C3)cc2F)N1CC(F)F (stereo partly drawn) [Compound B196, 3-(6-(1-(((S)-1-(4-((1R,3R)-2-(2,2-difluoroethyl)-3-methyl-2,3,4,9-tetrahydro-1H-pyrido[3,4-b]indol-1-yl)-3,5-difluorophenyl)pyrrolidin-3-yl)methyl)piperidine-4-carbonyl)-1-oxo-3,5,6,7-tetrahydropyrrolo[3,4-f]isoindol-2(1H)-yl)piperidine-2,6-dione]	A (“A”: <10 nM)
C[C@@H]1Cc2c([nH]c3ccccc23)[C@@H](c2cnc(C3=CCC(C(=O)N4CCC(N5Cc6cc7c(cc6C5)C(=O)N(C5CCC(=O)NC5=O)C7=O)CC4)CC3)nc2)N1CC(F)F (stereo partly drawn) [Compound B236, 6-(1-(4-(5-((1R,3R)-2-(2,2-difluoroethyl)-3-methyl-2,3,4,9-tetrahydro-1H-pyrido[3,4-b]indol-1-yl)pyrimidin-2-yl)cyclohex-3-ene-1-carbonyl)piperidin-4-yl)-2-(2,6-dioxopiperidin-3-yl)-6,7-dihydropyrrolo[3,4-f]isoindole-1,3(2H,5H)-dione]	B (“B”: 10-100 nM)
C[C@@H]1Cc2c([nH]c3ccccc23)[C@@H](c2ncc(C3=CCC(C(=O)N4CCC(N5Cc6cc7c(cc6C5)C(=O)N(C5CCC(=O)NC5=O)C7=O)CC4)CC3)cc2F)N1CC(F)F (stereo partly drawn) [Compound B109, 6-(1-(4-(6-((1S,3R)-2-(2,2-difluoroethyl)-3-methyl-2,3,4,9-tetrahydro-1H-pyrido[3,4-b]indol-1-yl)-5-fluoropyridin-3-yl)cyclohex-3-ene-1-carbonyl)piperidin-4-yl)-2-(2,6-dioxopiperidin-3-yl)-6,7-dihydropyrrolo[3,4-f]isoindole-1,3(2H,5H)-dione]	C (“C”: >100 nM)
C[C@@H]1Cc2c([nH]c3ccccc23)[C@@H](c2c(F)cc(C3CCC(C(=O)N4CCC(N5Cc6cc7c(cc6C5)C(=O)N(C5CCC(=O)NC5=O)C7)CC4)CC3)cc2F)N1CC(F)F (stereo partly drawn) [Compound B84, 3-(6-(1-(4-(4-((1R,3R)-2-(2,2-difluoroethyl)-3-methyl-2,3,4,9-tetrahydro-1H-pyrido[3,4-b]indol-1-yl)-3,5-difluorophenyl)cyclohexane-1-carbonyl)piperidin-4-yl)-1-oxo-3,5,6,7-tetrahydropyrrolo[3,4-f]isoindol-2(1H)-yl)piperidine-2,6-dione]	A (“A”: <10 nM)
C[C@@H]1Cc2c([nH]c3ccccc23)[C@@H](c2c(F)cc(N3CC4(CCN4CC(=O)N4Cc5cc6c(cc5C4)C(=O)N(C4CCC(=O)NC4=O)C6)C3)cc2F)N1CC(F)F (stereo partly drawn) [Compound B192, 3-(6-(2-(6-(4-((1R,3R)-2-(2,2-difluoroethyl)-3-methyl-2,3,4,9-tetrahydro-1H-pyrido[3,4-b]indol-1-yl)-3,5-difluorophenyl)-1,6-diazaspiro[3.3]heptan-1-yl)acetyl)-1-oxo-3,5,6,7-tetrahydropyrrolo[3,4-f]isoindol-2(1H)-yl)piperidine-2,6-dione]	C (“C”: >100 nM)

The remaining lines, values ahead:

Traditional Western Degradation Potency	SMILES
B (“B”: 10-100 nM)	C[C@@H]1Cc2c([nH]c3ccccc23)[C@@H](c2ccc(N3CCC4(CCN(C(=O)CN5Cc6cc7c(cc6C5)C(=O)N(C5CCC(=O)NC5=O)C7=O)CC4)CC3)cc2F)N1CC(F)F (stereo partly drawn) [Compound B231, 6-(2-(9-(4-((1R,3R)-2-(2,2-difluoroethyl)-3-methyl-2,3,4,9-tetrahydro-1H-pyrido[3,4-b]indol-1-yl)-3-fluorophenyl)-3,9-diazaspiro[5.5]undecan-3-yl)-2-oxoethyl)-2-(2,6-dioxopiperidin-3-yl)-6,7-dihydropyrrolo[3,4-f]isoindole-1,3(2H,5H)-dione]
A (“A”: <10 nM)	C[C@@H]1Cc2c([nH]c3ccccc23)[C@@H](c2c(F)cc(N3CCC4(CN(C(=O)CN5Cc6cc7c(cc6C5)C(=O)N(C5CCC(=O)NC5=O)C7=O)C4)C3)cc2F)N1CC(F)F (stereo partly drawn) [Compound B26, 6-(2-(6-(4-((1R,3R)-2-(2,2-difluoroethyl)-3-methyl-2,3,4,9-tetrahydro-1H-pyrido[3,4-b]indol-1-yl)-3,5-difluorophenyl)-2,6-diazaspiro[3.4]octan-2-yl)-2-oxoethyl)-2-(2,6-dioxopiperidin-3-yl)-6,7-dihydropyrrolo[3,4-f]isoindole-1,3(2H,5H)-dione]
A (“A”: <10 nM)	C[C@@H]1Cc2c([nH]c3ccccc23)[C@@H](c2c(F)cc(N3CCC(N4CCC(CC(=O)N5Cc6cc7c(cc6C5)C(=O)N(C5CCC(=O)NC5=O)C7=O)CC4)CC3)cc2F)N1CC(F)F (stereo partly drawn) [Compound B33, 6-(2-(1′-(4-((1R,3R)-2-(2,2-difluoroethyl)-3-methyl-2,3,4,9-tetrahydro-1H-pyrido[3,4-b]indol-1-yl)-3,5-difluorophenyl)-[1,4′-bipiperidin]-4-yl)acetyl)-2-(2,6-dioxopiperidin-3-yl)-6,7-dihydropyrrolo[3,4-f]isoindole-1,3(2H,5H)-dione]
C (“C”: >100 nM)	C[C@@H]1Cc2c([nH]c3ccccc23)[C@@H](c2c(F)cc(N3CCC4(CCN(CC(=O)N5Cc6cc7c(cc6C5)C(=O)N(C5CCC(=O)NC5=O)C7=O)C4)C3)cc2F)N1CC(F)F (stereo partly drawn) [Compound B19, 6-(2-(7-(4-((1R,3R)-2-(2,2-difluoroethyl)-3-methyl-2,3,4,9-tetrahydro-1H-pyrido[3,4-b]indol-1-yl)-3,5-difluorophenyl)-2,7-diazaspiro[4.4]nonan-2-yl)acetyl)-2-(2,6-dioxopiperidin-3-yl)-6,7-dihydropyrrolo[3,4-f]isoindole-1,3(2H,5H)-dione]
A (“A”: <10 nM)	C[C@@H]1Cc2c([nH]c3ccccc23)[C@@H](c2c(F)cc(N3CC4(CN(C(=O)CN5Cc6cc7c(cc6C5)C(=O)N(C5CCC(=O)NC5=O)C7=O)C4)C3)cc2F)N1CC(F)F (stereo partly drawn) [Compound B25, 6-(2-(6-(4-((1R,3R)-2-(2,2-difluoroethyl)-3-methyl-2,3,4,9-tetrahydro-1H-pyrido[3,4-b]indol-1-yl)-3,5-difluorophenyl)-2,6-diazaspiro[3.3]heptan-2-yl)-2-oxoethyl)-2-(2,6-dioxopiperidin-3-yl)-6,7-dihydropyrrolo[3,4-f]isoindole-1,3(2H,5H)-dione]
B (“B”: 10-100 nM)	C[C@@H]1Cc2c([nH]c3ccccc23)[C@@H](c2c(F)cc(N3CCC(C(=O)N4CC(CN5Cc6cc7c(cc6C5)C(=O)N(C5CCC(=O)NC5=O)C7=O)C4)CC3)cc2F)N1CC(F)F (stereo partly drawn) [Compound B207, 6-((1-(1-(4-((1R,3R)-2-(2,2-difluoroethyl)-3-methyl-2,3,4,9-tetrahydro-1H-pyrido[3,4-b]indol-1-yl)-3,5-difluorophenyl)piperidine-4-carbonyl)azetidin-3-yl)methyl)-2-(2,6-dioxopiperidin-3-yl)-6,7-dihydropyrrolo[3,4-f]isoindole-1,3(2H,5H)-dione]
A (“A”: <10 nM)	C[C@@H]1Cc2c([nH]c3ccccc23)[C@@H](c2ccc(N3CCC(C(=O)N4CCC(N5Cc6cc7c(cc6C5)C(=O)N(C5CCC(=O)NC5=O)C7=O)CC4)CC3)cc2F)N1CC(F)F (stereo partly drawn) [Compound B232, 6-(1-(1-(4-((1R,3R)-2-(2,2-difluoroethyl)-3-methyl-2,3,4,9-tetrahydro-1H-pyrido[3,4-b]indol-1-yl)-3-fluorophenyl)piperidine-4-carbonyl)piperidin-4-yl)-2-(2,6-dioxopiperidin-3-yl)-6,7-dihydropyrrolo[3,4-f]isoindole-1,3(2H,5H)-dione]
